Data published in US20100173890A1, “Compounds, Process for their Preparation, Intermediates, Pharmaceutical Compositions and their use in the Treatment of 5-HT6 Mediated Disorders such as Alzheimer's Disease, Cognitive Disorders, Cognitive Impairment Associated with Schizophrenia, Obesity and Parkinson's Disease” (AstraZeneca AB, priority 2005, published 2010).

Biological target: T1, Rat Striatal 5-HT6 Receptors (Rattus norvegicus, UniProt P31388)
T1 construct: Striatal tissue from adult rats (Sprague-Dawley, 320-370 g, B & K Sweden) were dissected out, weighed and homogenized; from tissue; host or cells: rat striatum (Sprague-Dawley) membranes
Experiment: [125I]SB258585 binding to rat striatal 5-HT6 receptors
Conditions: competition with 0.5-1 nM [125I]SB258585, rat striatal membranes
Protocol: Method for [125I]SB258585 Binding to Rat Striatal 5-HT6 Receptors
[^125I]SB258585 (1) with specific radioactivity 2000 Ci/mmol was purchased from Amersham Biosciences Europe GmbH, Freiburg, Germany. Other chemicals were is purchased from commercial sources and were of analytical grade.
Striatal tissue from adult rats (Sprague-Dawley, 320-370 g, B & K Sweden) were dissected out, weighed and homogenized in buffer containing 50 mM Tris-HCl, 4 mM MgCl2, 1 mM EDTA, 10 μM pargyline and protease inhibitor (Complete, Roche Diagnostics) pH 7.4 using an Ultra-Turrax T8 (IKA Labortechnik, Germany). The tissue homogenate was centrifuged at 48 000×g for 10 min and the pellet was resuspended and recentrifuged as above. […]
Saturation binding studies were carried out in duplicate with 1-3 mg w.w. per tube in 0.5 ml buffer (50 mM Tris, 4 mM MgCl2, 100 mM NaCl, 1 mM EDTA, 5 mM ascorbate and 10 μM pargyline at pH 7.4), 0.2 nM [^125I]SB258585 and unlabelled SB258585 to give a final concentration range of 0.23-20 nM (12 conc.). Non-specific binding was determined in the presence of 10 μM methiothepin. […] The radioactivity was determined in a Packard Tri-Carb 2900TR liquid scintillation counter: Data were analyzed by non-linear regression analyses using PRISM 4.00 (GraphPad Software Inc., San Diego, Calif.). […]

T1 sequence (P31388 whole entry): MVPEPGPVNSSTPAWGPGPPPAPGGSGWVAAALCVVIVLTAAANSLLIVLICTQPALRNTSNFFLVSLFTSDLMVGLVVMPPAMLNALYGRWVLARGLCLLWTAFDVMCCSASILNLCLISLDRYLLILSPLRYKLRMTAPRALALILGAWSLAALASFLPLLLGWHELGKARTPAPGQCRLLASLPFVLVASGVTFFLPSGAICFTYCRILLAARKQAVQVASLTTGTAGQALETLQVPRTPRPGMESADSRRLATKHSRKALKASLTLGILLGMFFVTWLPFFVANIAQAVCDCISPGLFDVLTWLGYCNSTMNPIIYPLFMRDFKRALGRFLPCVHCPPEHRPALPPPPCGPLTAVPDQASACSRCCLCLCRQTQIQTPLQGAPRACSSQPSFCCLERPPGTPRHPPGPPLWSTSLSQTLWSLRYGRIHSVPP

Ki: 82 ± 28 nM
Compound: O=S(=O)(Nc1cccc(Cl)c1)c1ccc2c(c1)CNCCO2 [Example 3, N-(3-Chlorophenyl)-2,3,4,5-tetrahydro-1,4-benzoxazepine-7-sulfonamide]
